According to patent US20190100731A1, “EX-VIVO […] MODEL, METHODS OF PRODUCING SAME AND USES THEREOF” (The State of Israel, Ministry of Agriculture & Rural …, priority 2016, published 2019):
“Also recorded” adds a separate entry of the source.

Key:
IL-6 = IL-6 production (ELISA) in ex-vivo intestinal biopsies; type: cell-based, human; settings: D/C treated biopsies of patient P6; 18 hours; pure CBD 25 μM / 16.6 μM (FIG. 5)
Description: (§1) Biopsies (3 mm3) obtained from inflamed or healthy intestines and placed in PBS were treated with a Dispase (1 U/ml, Cat # 07923, StemCell Technologies Inc.) and Collagenase Type 1 (0.5 mg/ml with an activity of 0.5-2 U/mg Cat # 07902, StemCell Technologies Inc.) solution. Tubes were then incubated for 2-3h at 37° C.
After incubation, the tubes containing the biopsies were centrifuged at 5000 rpm for 1 minute. Then the supernatants were removed and tissues were washed three times with Hank's balance salt solution (HBSS). After each wash tubes were centrifuged as mentioned above. Then the tissues were placed on small Petri dish and cut into 2-3 pieces with a clean scalpel. […] The following cytokines were measured: TNF Alfa (the supernatant was taken after 1-3 h), for the rest of the cytokines and interleukins supernatant was analyzed after 16 hours. The following factors were analyzed: IFN gamma, TFG beta, IL-10, IL-23/IL-23R, IL-12, IL-1 (IL 113), IL 2, IL-8/IL-8R, IL-6, IL-17, IL-13, IL-5, IL-4, IL-3. […] After all samples are taken, tissue viability will be assessed by addition of Alamar blue (Risazurin) as described below. […]

IL-8 = IL-8 secretion (ELISA) in D/C-treated ex-vivo intestinal biopsies; type: cell-based, human; design: IL-8 secretion Value: unit not given here
Description: as §1
After incubation, the tubes containing the biopsies were centrifuged at 5000 rpm for 1 minute. Then the supernatants were removed and tissues were washed three times with Hank's balance salt solution (HBSS). After each wash tubes were centrifuged as mentioned above. Then the tissues were placed on small Petri dish and cut into 2-3 pieces with a clean scalpel. Explants were cultured in groups of 2-3 with the villus surface facing up on microporous membranes (0.45-m pore size) contained in either Millicell-HA or organotypic tissue culture inserts (Millipore) placed inside 6-well plastic tissue culture dishes (Costar 3506) along with 1.5 ml of tissue culture medium. The tissue culture medium was Dulbecco's modified Eagle's medium supplemented with 10% heat-inactivated fetal calf serum, penicillin (100units/ml), streptomycin (100 μg/ml), leupeptin (50 μg/ml), PMSF (1 mM), soybean trypsin inhibitor (50 μg/ml). In cases dexamethasone (DX) was included in the media, its concentration was 200 μg/ml. This is followed by treating the samples with Control and extracts treatments (cannabis or other). In cases TNF-α is added to induce ILs expression the concentration was 50 μg/ml. Cultures are then incubated at 37° C. and gassed hourly with 95% oxygen and 5% carbon dioxide. For evaluation of TNF-α expression, supernatants are taken after 1 h of incubation. For other ILs, supernatants are taken after overnight incubation unless mentioned differently. The supernatants from biopsies are used for determination of cytokine profile by measuring their levels using commercial ELISA Kits. The following cytokines were measured: TNF Alfa (the supernatant was taken after 1-3 h), for the rest of the cytokines and interleukins supernatant was analyzed after 16 hours. The following factors were analyzed: IFN gamma, TFG beta, IL-10, IL-23/IL-23R, IL-12, IL-1 (IL 113), IL 2, IL-8/IL-8R, IL-6, IL-17, IL-13, IL-5, IL-4, IL-3. Levels of secreted factors from inflamed and healthy tissue and from cannabis treated and not treated tissue were compared. After all samples are taken, tissue viability will be assessed by addition of Alamar blue (Risazurin) as described below.
Biopsies obtained from both healthy and sick intestinal samples of two patients were cultured overnight incubation using the full protocol (D/C) described in material and methods section hereinabove. Seven different cytokines were evaluated following overnight incubation using specific ELISA kits manufactured by R&D Systems.
The cytokines tested included TNF-α, IL-6, IL-8, IL-10, IL-12, IL-17 and IL-27. In addition to the ethanolic cannabis extract was tested for its ability to reduce inflammation. After supernatant sampling, additional media was added to the wells and Resazurin (alamar blue) viability assay was carried out. […] Responsive cytokines that show significant levels of expression (FIGS. 1A-F) on one hand vs. other ILs in which basal level were obtained which didn't allow a clear conclusion (FIGS. 2A-D).
Several more experiments were done to corroborate the above results. These are summarized in Table 1 below(C2F and F7 and dexamethasone).

[1] = biopsy PH-13-H: healthy patient 13, healthy tissue
[2] = biopsy PH-15-H: healthy patient 15, healthy tissue
[3] = biopsy PS-3-H: sick patient 3, healthy tissue
[4] = biopsy PS-3-S: sick patient 3, sick tissue
[5] = biopsy PS-4-H: sick patient 4, healthy tissue
[6] = biopsy PS-4-S: sick patient 4, sick tissue
[7] = biopsy PS-7-H: sick patient 7, healthy tissue
[8] = biopsy PS-7-S: sick patient 7, sick tissue
[9] = biopsy PS-8-H: sick patient 8, healthy tissue
[10] = biopsy PS-11-H: sick patient 11, healthy tissue
[11] = biopsy PS-11-S: sick patient 11, sick tissue
[12] = biopsy PS-12-H: sick patient 12, healthy tissue
[13] = biopsy PS-12-S: sick patient 12, sick tissue
[14] = biopsy PS-14-H: sick patient 14, healthy tissue
[15] = biopsy PS-14-S: sick patient 14, sick tissue
[16] = biopsy PS-16-H: sick patient 16, healthy tissue
[17] = biopsy PS-16-S: sick patient 16, sick tissue
[18] = biopsy PS-17-H: sick patient 17, healthy tissue
[19] = biopsy PS-17-S: sick patient 17, sick tissue
[20] = biopsy PS-18-H: sick patient 18, healthy tissue
[21] = biopsy PS-18-S: sick patient 18, sick tissue
[22] = biopsy PS-19-H: sick patient 19, healthy tissue
[23] = biopsy PS-19-S: sick patient 19, sick tissue

In the case of `C=C(C)[C@@H]1CCC(C)=C[C@H]1c1c(O)cc(CCCCC)cc1O` [CBD, Cannabidiol], the “anti-inflammatory activity (IL-6 production)” value (IL-6) is reported as “doesn't harbor any anti-inflammatory activity; also recorded: no anti-inflammatory activity”.
In the case of `C[C@@H]1C[C@H]2[C@@H]3CCC4=CC(=O)C=C[C@]4(C)[C@@]3(F)[C@@H](O)C[C@]2(C)[C@@]1(O)C(=O)CO` [Dexamethasone, dexamethasone], the “IL-8 secretion % Reduction from NT” value (IL-8; [1]) is reported as −1.1%, the “IL-8 secretion Value” (IL-8; [1]) is reported as 844.6 and the “IL-8 secretion % Reduction from NT” value (IL-8; [2]) is reported as 46.4%. The “IL-8 secretion Value” (IL-8; [2]) was 451.9, the “IL-8 secretion % Reduction from NT” value (IL-8; [3]) was 32.4% and the “IL-8 secretion Value” (IL-8; [3]) was 670.1. The “IL-8 secretion % Reduction from NT” value (IL-8; [4]) was 17.5%, the “IL-8 secretion Value” (IL-8; [4]) was 742.6 and the “IL-8 secretion % Reduction from NT” value (IL-8; [5]) was 4.3%. For the same compound, the “IL-8 secretion Value” (IL-8; [5]) was 915.4, the “IL-8 secretion % Reduction from NT” value (IL-8; [6]) was 78.3% and the “IL-8 secretion Value” (IL-8; [6]) was 216.9. For the same compound, the “IL-8 secretion % Reduction from NT” value (IL-8; [7]) was 14.7%, the “IL-8 secretion Value” (IL-8; [7]) was 745.1 and the “IL-8 secretion % Reduction from NT” value (IL-8; [8]) was −5.6%. The “IL-8 secretion Value” (IL-8; [8]) was 793.9, the “IL-8 secretion % Reduction from NT” value (IL-8; [9]) was 69.5% and the “IL-8 secretion Value” (IL-8; [9]) was 215.3. For the same compound, the “IL-8 secretion % Reduction from NT” value (IL-8; [10]) was 94.8%, the “IL-8 secretion Value” (IL-8; [10]) was 34.9 and the “IL-8 secretion % Reduction from NT” value (IL-8; [11]) was 83.3%. For the same compound, the “IL-8 secretion Value” (IL-8; [11]) was 74.2, the “IL-8 secretion % Reduction from NT” value (IL-8; [12]) was 43.7% and the “IL-8 secretion Value” (IL-8; [12]) was 530.6. The “IL-8 secretion % Reduction from NT” value (IL-8; [13]) was 4.0%, the “IL-8 secretion Value” (IL-8; [13]) was 817.8 and the “IL-8 secretion % Reduction from NT” value (IL-8; [14]) was 44.2%. The “IL-8 secretion Value” (IL-8; [14]) was 485.8, the “IL-8 secretion % Reduction from NT” value (IL-8; [15]) was 24.1% and the “IL-8 secretion Value” (IL-8; [15]) was 666.8. The “IL-8 secretion % Reduction from NT” value (IL-8; [16]) was 38.3%, the “IL-8 secretion Value” (IL-8; [16]) was 166.5 and the “IL-8 secretion % Reduction from NT” value (IL-8; [17]) was 83.6%. For the same compound, the “IL-8 secretion Value” (IL-8; [17]) was 96.7, the “IL-8 secretion % Reduction from NT” value (IL-8; [18]) was 68.9% and the “IL-8 secretion Value” (IL-8; [18]) was 303.5. For the same compound, the “IL-8 secretion % Reduction from NT” value (IL-8; [19]) was 0.5%, the “IL-8 secretion Value” (IL-8; [19]) was 1064.0 and the “IL-8 secretion % Reduction from NT” value (IL-8; [20]) was 66.4%. For the same compound, the “IL-8 secretion Value” (IL-8; [20]) was 331.0, the “IL-8 secretion % Reduction from NT” value (IL-8; [21]) was 36.1% and the “IL-8 secretion Value” (IL-8; [21]) was 484.9. For the same compound, the “IL-8 secretion % Reduction from NT” value (IL-8; [22]) was 32.6%, the “IL-8 secretion Value” (IL-8; [22]) was 86.0 and the “IL-8 secretion % Reduction from NT” value (IL-8; [23]) was 64.2%. For the same compound, the “IL-8 secretion Value” (IL-8; [23]) was 80.5.
